The values that follow come from US9834565B2, “Tricyclic heterocycles as bet protein inhibitors” (Incyte Corporation, priority 2014, dated 2017).

One assay addresses BRD4-BD2 (Homo sapiens (Human), UniProt O60885). The assay can be described thus: BRD4-BD2 AlphaScreen assay. The assay is classed as binding. To be noted: H4Ac4 peptide, read-out: BRD4 BD-2 enzyme IC50. Here is the method:
(§1) BRD4-BD1 and BRD4-BD2 assays were conducted in white 384-well polystyrene plate in a final volume of 20 μL for BD1 and 40 μL for BD2. Inhibitors were first serially diluted in DMSO and added to the plate wells before the addition of other reaction components. […] After plate sealing, the plate was incubated in the dark at room temperature for 75 min. before reading on a PHERAstar FS plate reader (BMG Labtech). IC50 determination was performed by fitting the curve of percent control activity versus the log of the inhibitor concentration using the GraphPad Prism 5.0 software.

In another assay the target is BRD4-BD1 (Homo sapiens (Human), UniProt O60885). The assay can be described thus: BRD4-BD1 AlphaScreen assay. The assay is classed as binding. The conditions noted are these: H4Ac4 peptide, read-out: BRD4 BD-1 enzyme IC50. How it is done:
as §1

Each structure is given as a SMILES string. Some results are limits rather than exact numbers.

On to `CC(=O)N1C[C@@H](C)N(c2nc3ccc(-c4c(C)noc4C)c4c3n2[C@@H](c2ccccn2)CO4)[C@@H](C)C1` (atropisomer, axis not shown) [Example 2, (4S)-2-[(2R,6S)-4-Acetyl-2,6-dimethylpiperazin-1-yl]-7-(3,5-dimethylisoxazol-4-yl)-4-pyridin-2-yl-4,5-dihydroimidazo[1,5,4-de][1,4]benzoxazine], for which the IC50 at BRD4-BD2 and at BRD4-BD1 was less than 25 nM each time.

For `Cc1noc(C)c1-c1ccc2nc(N3CCN(C(=O)C(C)C)CC3)n3c2c1OC[C@@H]3c1ccccn1` [Example 1, (4S)-7-(3,5-Dimethylisoxazol-4-yl)-2-(4-isobutyrylpiperazin-1-yl)-4-pyridin-2-yl-4,5-dihydroimidazo[1,5,4-de][1,4]benzoxazine], the IC50 at BRD4-BD2 and on BRD4-BD1 was less than 25 nM throughout.

`CC(=O)N1CCN(c2nc3ccc(-c4c(C)noc4C)c4c3n2[C@@H](c2ccccn2)CO4)[C@@H](C)C1` [Example 3, (4S)-2-[(2S)-4-acetyl-2-methylpiperazin-1-yl]-7-(3,5-dimethylisoxazol-4-yl)-4-pyridin-2-yl-4,5-dihydroimidazo[1,5,4-de][1,4] benzoxazine]: the IC50 at BRD4-BD2 was less than 25 nM; on BRD4-BD1, 25 to 100 nM.

As to `CC(=O)N1CC2CC1CN2c1nc2ccc(-c3c(C)noc3C)c3c2n1[C@@H](c1ccccn1)CO3` (stereo partly drawn) [Example 4, (4S)-2-(5-acetyl-2,5-diazabicyclo[2.2.1]hept-2-yl)-7-(3,5-dimethylisoxazol-4-yl)-4-pyridin-2-yl-4,5-dihydroimidazo[1,5,4-de][1,4]benzoxazine], the half-maximal inhibitory concentration (IC50) at BRD4-BD2 and on BRD4-BD1 was less than 25 nM throughout.

For `CC(=O)NC1(C)CCN(c2nc3ccc(-c4c(C)noc4C)c4c3n2[C@@H](c2ccccn2)CO4)CC1` [Example 5, N-{1-[(4S)-7-(3,5-dimethylisoxazol-4-yl)-4-pyridin-2-yl-4,5-dihydroimidazo[1,5,4-de][1,4]benzoxazin-2-yl]-4-methylpiperidin-4-yl}acetamide], the IC50 on BRD4-BD2 is less than 25 nM; at BRD4-BD1 it was 25 to 100 nM.

Turning to `CCC(=O)N1CCN(c2nc3ccc(-c4c(C)noc4C)c4c3n2[C@@H](c2ccccn2)CO4)C[C@@H]1C` [Example 8, (4S)-7-(3,5-dimethylisoxazol-4-yl)-2-[(3S)-3-methyl-4-propionylpiperazin-1-yl]-4-pyridin-2-yl-4,5-dihydroimidazo[1,5,4-de][1,4]benzoxazine], the half-inhibitory concentration (IC50) at BRD4-BD2 and at BRD4-BD1 was less than 25 nM in each case.

Take `Cc1noc(C)c1-c1ccc2nc(N3CCN(C(=O)C(C)C)[C@@H](C)C3)n3c2c1OC[C@@H]3c1ccccn1` [Example 9, (4S)-7-(3,5-dimethylisoxazol-4-yl)-2-[(3S)-4-isobutyryl-3-methylpiperazin-1-yl]-4-pyridin-2-yl-4,5-dihydroimidazo[1,5,4-de][1,4]benzoxazine]: the half-maximal inhibitory concentration (IC50) on BRD4-BD2 and on BRD4-BD1 was less than 25 nM throughout.

As to `CCCC(=O)NC1CCN(c2nc3ccc(-c4c(C)noc4C)c4c3n2[C@@H](c2ccccn2)CO4)CC1` [Example 10, N-{1-[(4S)-7-(3,5-dimethylisoxazol-4-yl)-4-pyridin-2-yl-4,5-dihydroimidazo[1,5,4-de][1,4]benzoxazin-2-yl]piperidin-4-yl}butanamide], the IC50 at BRD4-BD2 and on BRD4-BD1 was less than 25 nM in each case.

With `Cc1noc(C)c1-c1ccc2nc(N3CCC(NC(=O)C(C)(C)C)CC3)n3c2c1OC[C@@H]3c1ccccn1` [Example 11, N-{1-[(4S)-7-(3,5-dimethylisoxazol-4-yl)-4-pyridin-2-yl-4,5-dihydroimidazo[1,5,4-de][1,4]benzoxazin-2-yl]piperidin-4-yl}-2,2-dimethylpropanamide], the IC50 at BRD4-BD2 and at BRD4-BD1 was less than 25 nM in each case.

With `Cc1noc(C)c1-c1ccc2nc(N3CCC(NC(=O)C4CCC4)CC3)n3c2c1OC[C@@H]3c1ccccn1` [Example 13, N-{1-[(4S)-7-(3,5-dimethylisoxazol-4-yl)-4-pyridin-2-yl-4,5-dihydroimidazo[1,5,4-de][1,4]benzoxazin-2-yl]piperidin-4-yl}cyclobutanecarboxamide], the half-inhibitory concentration (IC50) on BRD4-BD2 and at BRD4-BD1 was less than 25 nM each time.

For the compound `CCC(=O)N(C)C1CCN(c2nc3ccc(-c4c(C)noc4C)c4c3n2[C@@H](c2ccccn2)CO4)CC1` [Example 15, N-{1-[(4S)-7-(3,5-dimethylisoxazol-4-yl)-4-pyridin-2-yl-4,5-dihydroimidazo[1,5,4-de][1,4]benzoxazin-2-yl]piperidin-4-yl}-N-methylpropanamide], the IC50 at BRD4-BD2 and on BRD4-BD1 was less than 25 nM each time.

In the case of `CCCC(=O)N(C)C1CCN(c2nc3ccc(-c4c(C)noc4C)c4c3n2[C@@H](c2ccccn2)CO4)CC1` [Example 16, N-{1-[(4S)-7-(3,5-dimethylisoxazol-4-yl)-4-pyridin-2-yl-4,5-dihydroimidazo[1,5,4-de][1,4]benzoxazin-2-yl]piperidin-4-yl}-N-methylbutanamide], the IC50 at BRD4-BD2 and on BRD4-BD1 was less than 25 nM throughout.

`Cc1noc(C)c1-c1ccc2nc(N3CCC(N(C)C(=O)C(C)C)CC3)n3c2c1OC[C@@H]3c1ccccn1` [Example 17, N-{1-[(4S)-7-(3,5-dimethylisoxazol-4-yl)-4-pyridin-2-yl-4,5-dihydroimidazo[1,5,4-de][1,4]benzoxazin-2-yl]piperidin-4-yl}-N,2-dimethylpropanamide]: the concentration for half-maximal inhibition (IC50) at BRD4-BD2 and on BRD4-BD1 was less than 25 nM each time.

On to `Cc1noc(C)c1-c1ccc2nc(N3CCC(N(C)C(=O)C(C)(C)C)CC3)n3c2c1OC[C@@H]3c1ccccn1` [Example 18, N-{1-[(4S)-7-(3,5-dimethylisoxazol-4-yl)-4-pyridin-2-yl-4,5-dihydroimidazo[1,5,4-de][1,4]benzoxazin-2-yl]piperidin-4-yl}-N,2,2-trimethylpropanamide], for which the half-inhibitory concentration (IC50) at BRD4-BD2 and at BRD4-BD1 was less than 25 nM throughout.

For `Cc1noc(C)c1-c1ccc2nc(N3CCC(N(C)C(=O)C4CC4)CC3)n3c2c1OC[C@@H]3c1ccccn1` [Example 19, N-{1-[(4S)-7-(3,5-dimethylisoxazol-4-yl)-4-pyridin-2-yl-4,5-dihydroimidazo[1,5,4-de][1,4]benzoxazin-2-yl]piperidin-4-yl}-N-methylcyclopropanecarboxamide], the 50% inhibitory concentration (IC50) at BRD4-BD2 and on BRD4-BD1 was less than 25 nM in each case.

In the case of `Cc1noc(C)c1-c1ccc2nc(N3CCC(N(C)C(=O)C4CCC4)CC3)n3c2c1OC[C@@H]3c1ccccn1` [Example 20, N-{1-[(4S)-7-(3,5-dimethylisoxazol-4-yl)-4-pyridin-2-yl-4,5-dihydroimidazo[1,5,4-de][1,4]benzoxazin-2-yl]piperidin-4-yl}-N-methylcyclobutanecarboxamide], the half-inhibitory concentration (IC50) on BRD4-BD2 and on BRD4-BD1 was less than 25 nM throughout.

Consider `CCS(=O)(=O)N(C)C1CCN(c2nc3ccc(-c4c(C)noc4C)c4c3n2[C@@H](c2ccccn2)CO4)CC1` [Example 23, N-{1-[(4S)-7-(3,5-dimethylisoxazol-4-yl)-4-pyridin-2-yl-4,5-dihydroimidazo[1,5,4-de][1,4]benzoxazin-2-yl]piperidin-4-yl}-N-methylethanesulfonamide], for which the half-maximal inhibitory concentration (IC50) at BRD4-BD2 and at BRD4-BD1 was less than 25 nM in each case.

Regarding `Cc1noc(C)c1-c1ccc2nc(N3CCC(N(C)S(=O)(=O)C4CC4)CC3)n3c2c1OC[C@@H]3c1ccccn1` [Example 24, N-{1-[(4S)-7-(3,5-dimethylisoxazol-4-yl)-4-pyridin-2-yl-4,5-dihydroimidazo[1,5,4-de][1,4]benzoxazin-2-yl]piperidin-4-yl}-N-methylcyclopropanesulfonamide], the IC50 at BRD4-BD2 and at BRD4-BD1 was less than 25 nM throughout.

In the case of `CCCC(=O)N1CCN(c2nc3ccc(-c4c(C)noc4C)c4c3n2[C@@H](c2ccccn2)CO4)CC1` [Example 25, (4S)-2-(4-butyrylpiperazin-1-yl)-7-(3,5-dimethylisoxazol-4-yl)-4-pyridin-2-yl-4,5-dihydroimidazo[1,5,4-de][1,4]benzoxazine], the IC50 on BRD4-BD2 and at BRD4-BD1 was less than 25 nM throughout.

For `Cc1noc(C)c1-c1ccc2nc(N3CCN(C(=O)C(C)(C)C)CC3)n3c2c1OC[C@@H]3c1ccccn1` [Example 26, (4S)-7-(3,5-dimethylisoxazol-4-yl)-2-[4-(2,2-dimethylpropanoyl)piperazin-1-yl]-4-pyridin-2-yl-4,5-dihydroimidazo[1,5,4-de][1,4]benzoxazine], the IC50 at BRD4-BD2 and at BRD4-BD1 was less than 25 nM throughout.

`Cc1noc(C)c1-c1ccc2nc(N3CCN(C(=O)C4CCC4)CC3)n3c2c1OC[C@@H]3c1ccccn1` [Example 28, (4S)-2-[4-(cyclobutylcarbonyl)piperazin-1-yl]-7-(3,5-dimethylisoxazol-4-yl)-4-pyridin-2-yl-4,5-dihydroimidazo[1,5,4-de][1,4]benzoxazine]: the 50% inhibitory concentration (IC50) at BRD4-BD2 and on BRD4-BD1 was less than 25 nM throughout.

Turning to `COCC(=O)N1CCN(c2nc3ccc(-c4c(C)noc4C)c4c3n2[C@@H](c2ccccn2)CO4)CC1` [Example 29, (4S)-7-(3,5-dimethylisoxazol-4-yl)-2-[4-(methoxyacetyl)piperazin-1-yl]-4-pyridin-2-yl-4,5-dihydroimidazo[1,5,4-de][1,4]benzoxazine], the concentration for half-maximal inhibition (IC50) on BRD4-BD2 and on BRD4-BD1 was less than 25 nM each time.
